# Measured values published in US20240408170A1, “COMPOSITION FOR DECOMPOSITION OF TRYPSIN OR TMPRSS2” (Riken, priority 2021, published 2024).
# How the values were obtained:
# [1] = test system: Citrobacter rodentium; test: Vaccine administration experiment (peracetic acid-inactivated C. rodentium) followed by C. rodentium infection; assay type: in vivo, mouse; details: with 2-mix
# Description: For a colony-forming unit (CFU) assay, cecal patches or cecal luminal contents were collected, and after homogenization with PBS, serially diluted homogenates were plated on LB agar plates. CFU was counted after overnight culture at 37° C. under aerobic conditions.
# For the ex vivo evaluation of C. rodentium-specific IgA, the cecal contents were resuspended in a 5× (w/v) LB medium and centrifuged. The supernatant was filtered through a sterilization filter unit with a PVDF film having a pore size of 0.22 μm, and then mixed with an equal amount of a C. rodentium culture solution cultured overnight in vitro. This mixture was gently shaken at room temperature and incubated for 1 hour to examine the aggregation effect with a confocal microscope (Leica TCS SP8). Alternatively, after the incubation, the mixture was centrifuged and washed once with PBS. Thereafter, the bacterial cell pellet was dissolved in a 1% SDS solution (diluted with a 50 mM Tris-HCl buffer solution to which 5 mM EDTA was added). The lysate was stained by western blot with a goat anti-mouse IgA a chain antibody (HRP) (ab97235) to evaluate the relative amount of C. rodentium-binding (C. rodentium-specific) IgA in the faecal contents.
# For a vaccine administration experiment, 200 μL of 2-mix (B. uniformis and P. merdae)+P. clara (WT), or 2-mix+P. clara (Δ00502) was preliminarily administered to GF mice. After 4 days, C. rodentium (10^10 cells/mouse) inactivated with peracetic acid was orally administered to the mice once a week for 3 weeks. After 3 weeks of immunization, the mice were infected with C. rodentium (150 μL/mouse) cultured overnight by oral administration, and euthanized on day 14.
# The C. rodentium inactivated by peracetic acid was produced as follows. C. rodentium cultured overnight was recovered by centrifugation (16,000×g, 10 minutes) and resuspended in sterilized PBS at a density of 10^10 cells per 1 mL. Peracetic acid (240990, Sigma-Aldrich) was added such that a final concentration was 0.4%, and incubation was performed at room temperature for 1 hour. […]
# [2] = test system: IgA heavy chain; test: Western blot of faeces of GF mice inoculated with P. clara strain together with 2-mix; assay type: in vivo, mouse; details: compared to Δ00502 or Δ00509
# Description: Mouse faecal samples were suspended and diluted 50-fold with phosphate buffered saline (PBS) to which a protease inhibitor cocktail (Roche) was added. Subsequently, the suspended sample was centrifuged at 15,000×g for 10 minutes at 4° C., and the supernatant was subjected to western blot. Mouse pancreatic tissue was rapidly frozen in liquid nitrogen. Proteins were extracted by TRIzol Reagent (Thermo Fisher Scientific K.K.), and the final protein concentration was adjusted to 4 μg/μL. For SDS-PAGE and blotting, Novex (registered trademark) NuPAGE (registered trademark) SDS-PAGE Gel system (Thermo Fisher Scientific K.K.) and iBlot™ 2 Dry Blotting System (Thermo Fisher Scientific K.K.) were used according to the manufacturer's instructions.
# The antibodies used are as follows. […]
# [3] = test system: mouse hepatitis virus (MHV); test: Mouse hepatitis virus (MHV) infection of gnotobiotic mice; assay type: in vivo; details: with 2-mix
# Description: MHV-2 was provided by Makoto UJIKE (Nippon Veterinary and Life Science University). Five-week-old GF C57BL/6N male mice were obtained from CLEA Japan, Inc. or Sankyo Labo Service Corporation, and were separately bred in stainless steel isolators. 200 μL of 2-mix (B. uniformis and P. merdae)+P. clara (WT) or 2-mix+P. clara (Δ00502) was orally administered to the GF mice. Two weeks after inoculation, the mice were orally infected with 4.5×10^6 PFU of MHV-2, and the survival rate was observed every day for 10 days.
# The liver and brain were collected on 4 or 5 days after infection to measure virus titers, and homogenization was performed with DNA/RNA Shield (Zymo Research Corporation). Viral RNA was extracted using a Quick-RNA Viral Kit (Zymo Research Corporation) according to the manufacturer's instructions, and cDNA was synthesized using ReverTra Ace (TOYOBO CO., LTD.) and a random primer (TOYOBO CO., LTD.).
# Quantitative real-time PCR was performed with LightCycler 480 System (Roche) using THUNDERBIRD SYBR qPCR Mix (TOYOBO CO., LTD.) to amplify an orf1a gene. The relative amount of MHV was obtained from a standard curve created from a serial diluent solution of MHV genomic cDNA. The base sequences of the primers used are as follows.
substance,measurement,setting,value
Paraprevotella clara [JCM 14859],body weight after infection with C. rodentium,[1]; orally vaccinated mice,body weight loss was reduced
same,C. rodentium-specific IgA in cecal luminal contents,[1]; western blot,significantly high amount of C. rodentium-specific IgA
same,total IgA in cecal luminal contents,[1]; western blot,significantly high total IgA amount
same,IgA heavy chain in the faeces,[2],larger amount
same,liver pathology (hematoxylin and eosin),[3],protected from the necrotizing liver pathology
same,viral titers of MHV in liver and brain,[3],significantly prevented the spread of the virus
same,survival after MHV infection,[3]; oral MHV 14 days after inoculation,prolonged survival
